Assay results as given in ChEMBL document CHEMBL4334438, “Discovery of novel glycogen synthase kinase-3α inhibitors: Structure-based virtual screening, preliminary SAR and biological evaluation for treatment of acute myeloid leukemia” (Eur J Med Chem, 2019).

Legend:
[1] = molecular target: Ephrin type-A receptor 4 (Homo sapiens) (UniProt P54764); experiment: Inhibition of recombinant human EphA4 (601 to 892 residues) assessed as residual activity at 1 uM using poly(Glu, Tyr) 4:1 as substrate at 40 mins in presence of [gamma-33ATP] by scintillation counting based radiometry assay relative to control
[2] = system: Calcium/calmodulin-dependent protein kinase kinase 2 (Homo sapiens), Q96RR4 [T85S]; experiment: Inhibition of recombinant full length human CaMKK2 T85S mutant assessed as residual activity at 1 uM […] incubated for 40 mins in presence of [gamma-33ATP] by scintillation counting based radiometry assay relative to control
[3] = molecular target: Tyrosine-protein kinase FRK (Homo sapiens) (UniProt P42685); experiment: Inhibition of recombinant human PTK5 (218 to end residues) assessed as residual activity at 1 uM using GGEEEEYFELVKKKK as substrate measured after 40 mins in presence of [gamma33P]ATP by scintillation counting method relative to control
[4] = molecular target: Serine/threonine-protein kinase PLK2 (Homo sapiens) (UniProt Q9NYY3); experiment: Inhibition of human Snk (65 to 409 residues) assessed as residual activity at 1 uM using casein as substrate measured after 40 mins in presence of [gamma33P]ATP by scintillation counting method relative to control
[5] = system: RAC-beta serine/threonine-protein kinase (Homo sapiens), P31751 [S474D]; experiment: Inhibition of recombinant human PKBbeta S474D mutant (120 to end residues) assessed as residual activity at 1 uM using GRPRTSSFAEGKK as substrate measured after 40 mins in presence of [gamma33P]ATP by scintillation counting method relative to control
[6] = molecular target: Serine/threonine-protein kinase 10 (Homo sapiens) (UniProt O94804); experiment: Inhibition of recombinant human LOK (1 to 348 residues) assessed as residual activity at 1 uM using RLGRDKYKTLRQIRQ as substrate after 40 mins in presence of [gamma-33ATP] by scintillation counting based radiometry assay relative to control
[7] = molecular target: PI3K p110 beta/p85 alpha (Homo sapiens) (UniProt P27986+P42338); experiment: Inhibition of recombinant full-length human PI3K p110beta/p85alpha at 1 uM assessed as residual activity at 1 uM using phosphatidylinositol-4, 5-bisphosphate as substrate measured after 40 mins by fluorescence assay; format: protein-complex assay
[8] = molecular target: Serine/threonine-protein kinase SIK1 (Homo sapiens) (UniProt P57059); experiment: Inhibition of recombinant human SIK (1 to 281 residues) assessed as residual activity at 1 uM using AMARAASAAALARRR as substrate measured after 40 mins in presence of [gamma33P]ATP by scintillation counting method assay relative to control
[9] = molecular target: SRSF protein kinase 2 (Homo sapiens) (UniProt P78362); experiment: Inhibition of human SRPK2 (46 to end residues) assessed as residual activity at 1 uM using RSRSRSRSRSRSRSR as substrate measured after 40 mins in presence of [gamma33P]ATP by scintillation counting method relative to control
[10] = molecular target: Inhibitor of nuclear factor kappa-B kinase subunit alpha (Homo sapiens) (UniProt O15111); experiment: Inhibition of full length human IKKalpha assessed as residual activity at 1 uM using peptide as substrate after 40 mins by [gamma-33ATP] radiometric assay relative to control
[11] = system: Hepatocyte growth factor receptor (Homo sapiens), P08581 [Y1230H]; experiment: Inhibition of recombinant human MET A1209G/V1290L/Y1248H mutant (974 to end residues) assessed as residual activity at 1 uM using KKKGQEEEYVFIE as substrate incubated for 40 mins in presence of [gamma-33ATP by scintillation counting based radiometry assay relative to control
[12] = system: Angiopoietin-1 receptor (Homo sapiens), Q02763 [Q939H,Q940H,R849W]; experiment: Inhibition of human Tie2 Q939H/Q940H/R849W mutant (771 to end residues) assessed as residual activity at 1 uM using EFPIYDFLPAKKK as substrate measured after 40 mins in presence of [gamma33P]ATP by scintillation counting method relative to control
[13] = molecular target: Casein kinase I isoform gamma-2 (Homo sapiens) (UniProt P78368); experiment: Inhibition of recombinant human CK1gamma2 (18 to end residues) assessed as residual activity at 1 uM using KRRRALS(p)VASLPGL as substrate incubated for 40 mins in presence of [gamma-33ATP] by scintillation counting based radiometry assay relative to control
[14] = molecular target: Vascular endothelial growth factor receptor 2 (Homo sapiens) (UniProt P35968); experiment: Inhibition of human KDR (790 to end residues) assessed as residual activity at 1 uM using myelin basic protein as substrate after 40 mins by [gamma-33ATP] radiometric assay relative to control
[15] = molecular target: Myosin light chain kinase, smooth muscle (Homo sapiens) (UniProt Q15746); experiment: Inhibition of recombinant human MLCK (1425 to 1771 residues) assessed as residual activity at 1 uM […] incubated for 40 mins in presence of [gamma-33ATP by scintillation counting based radiometry assay relative to control
[16] = molecular target: Serine/threonine-protein kinase tousled-like 2 (Homo sapiens) (UniProt Q86UE8); experiment: Inhibition of human TLK2 (387 to end residues) assessed as residual activity at 1 uM using casein as substrate measured after 40 mins in presence of [gamma33P]ATP by scintillation counting method relative to control
[17] = molecular target: MAP kinase-interacting serine/threonine-protein kinase 2 (Homo sapiens) (UniProt Q9HBH9); experiment: Inhibition of recombinant full-length human Mnk2 assessed as residual activity at 1 uM using myelin basic protein as substrate measured after 40 mins in presence of [gamma33P]ATP by scintillation counting method
[18] = molecular target: G protein-coupled receptor kinase 6 (Homo sapiens) (UniProt P43250); experiment: Inhibition of recombinant full length human GRK6 assessed as residual activity at 1 uM using casein as substrate at 40 mins in presence of [gamma-33ATP] by scintillation counting based radiometry assay relative to control
[19] = molecular target: Tyrosine-protein kinase JAK1 (Homo sapiens) (UniProt P23458); experiment: Inhibition of human JAK1 (866 to end residues) assessed as residual activity at 1 uM using GEEPLYWSFPAKKK as substrate after 40 mins by [gamma-33ATP] radiometric assay relative to control
[20] = molecular target: Testis-specific serine/threonine-protein kinase 2 (Homo sapiens) (UniProt Q96PF2); experiment: Inhibition of recombinant full-length human TSSK2 at 1 uM assessed as residual activity at 1 uM using KKKVSRSGLYRSPSMPENLNRPR as substrate measured after 40 mins in presence of [gamma33P]ATP by scintillation counting method relative to control
[21] = molecular target: Tyrosine-protein kinase CSK (Homo sapiens) (UniProt P41240); experiment: Inhibition of recombinant human CSK assessed as residual activity at 1 uM poly(Glu, Tyr) 4:1 as substrate incubated 40 mins in presence of [gamma-33ATP] by scintillation counting based radiometry assay relative to control
Chain of Tyrosine-protein kinase CSK (Homo sapiens) (P41240 2-450 limits assumed): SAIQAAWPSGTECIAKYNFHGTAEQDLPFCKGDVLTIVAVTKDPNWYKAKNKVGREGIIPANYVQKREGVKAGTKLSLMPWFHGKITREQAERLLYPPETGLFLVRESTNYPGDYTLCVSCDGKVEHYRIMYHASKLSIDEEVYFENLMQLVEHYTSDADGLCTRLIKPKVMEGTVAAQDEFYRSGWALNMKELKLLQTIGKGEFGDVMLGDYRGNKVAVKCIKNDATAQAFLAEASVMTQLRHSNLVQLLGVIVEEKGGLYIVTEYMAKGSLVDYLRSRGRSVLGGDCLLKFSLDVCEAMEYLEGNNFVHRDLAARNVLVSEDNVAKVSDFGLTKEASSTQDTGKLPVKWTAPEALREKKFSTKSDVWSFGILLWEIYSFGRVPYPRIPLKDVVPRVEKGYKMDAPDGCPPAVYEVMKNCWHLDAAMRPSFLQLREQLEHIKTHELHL

Chain of Serine/threonine-protein kinase tousled-like 2 (Homo sapiens) (Q86UE8 whole entry, looked up): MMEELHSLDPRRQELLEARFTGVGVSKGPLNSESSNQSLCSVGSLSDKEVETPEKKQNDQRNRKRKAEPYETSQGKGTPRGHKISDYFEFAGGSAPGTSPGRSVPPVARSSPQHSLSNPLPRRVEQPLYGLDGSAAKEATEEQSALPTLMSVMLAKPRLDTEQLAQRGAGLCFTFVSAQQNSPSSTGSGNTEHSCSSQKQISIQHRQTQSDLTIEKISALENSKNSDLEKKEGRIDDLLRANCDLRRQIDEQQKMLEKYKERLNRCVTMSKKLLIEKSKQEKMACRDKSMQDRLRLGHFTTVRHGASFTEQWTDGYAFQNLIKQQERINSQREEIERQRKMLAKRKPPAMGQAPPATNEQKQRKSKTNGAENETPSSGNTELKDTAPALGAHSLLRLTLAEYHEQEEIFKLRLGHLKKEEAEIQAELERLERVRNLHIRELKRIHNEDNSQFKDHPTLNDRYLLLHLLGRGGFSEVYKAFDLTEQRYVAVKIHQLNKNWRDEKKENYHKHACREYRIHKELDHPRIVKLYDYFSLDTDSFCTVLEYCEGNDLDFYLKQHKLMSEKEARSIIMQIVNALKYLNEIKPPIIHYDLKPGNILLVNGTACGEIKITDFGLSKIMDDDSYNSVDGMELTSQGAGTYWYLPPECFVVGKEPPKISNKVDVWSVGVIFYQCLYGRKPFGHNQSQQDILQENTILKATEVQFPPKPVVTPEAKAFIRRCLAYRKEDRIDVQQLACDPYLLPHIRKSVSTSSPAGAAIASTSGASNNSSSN
Chain of MAP kinase-interacting serine/threonine-protein kinase 2 (Homo sapiens) (Q9HBH9 whole entry, looked up): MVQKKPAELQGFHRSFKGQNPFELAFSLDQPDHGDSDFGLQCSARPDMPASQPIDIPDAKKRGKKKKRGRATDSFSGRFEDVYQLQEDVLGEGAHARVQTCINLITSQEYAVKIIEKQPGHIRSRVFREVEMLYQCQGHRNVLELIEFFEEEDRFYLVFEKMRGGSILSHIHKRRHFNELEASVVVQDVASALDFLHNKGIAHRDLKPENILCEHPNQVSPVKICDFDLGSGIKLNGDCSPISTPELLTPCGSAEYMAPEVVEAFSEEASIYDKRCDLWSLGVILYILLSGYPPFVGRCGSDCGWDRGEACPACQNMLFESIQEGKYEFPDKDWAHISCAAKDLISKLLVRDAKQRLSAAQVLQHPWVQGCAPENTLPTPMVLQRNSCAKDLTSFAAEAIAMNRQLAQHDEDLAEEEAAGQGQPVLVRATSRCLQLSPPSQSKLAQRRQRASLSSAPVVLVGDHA
Chain of Serine/threonine-protein kinase SIK1 (Homo sapiens) (P57059 whole entry, the tested form may be a part): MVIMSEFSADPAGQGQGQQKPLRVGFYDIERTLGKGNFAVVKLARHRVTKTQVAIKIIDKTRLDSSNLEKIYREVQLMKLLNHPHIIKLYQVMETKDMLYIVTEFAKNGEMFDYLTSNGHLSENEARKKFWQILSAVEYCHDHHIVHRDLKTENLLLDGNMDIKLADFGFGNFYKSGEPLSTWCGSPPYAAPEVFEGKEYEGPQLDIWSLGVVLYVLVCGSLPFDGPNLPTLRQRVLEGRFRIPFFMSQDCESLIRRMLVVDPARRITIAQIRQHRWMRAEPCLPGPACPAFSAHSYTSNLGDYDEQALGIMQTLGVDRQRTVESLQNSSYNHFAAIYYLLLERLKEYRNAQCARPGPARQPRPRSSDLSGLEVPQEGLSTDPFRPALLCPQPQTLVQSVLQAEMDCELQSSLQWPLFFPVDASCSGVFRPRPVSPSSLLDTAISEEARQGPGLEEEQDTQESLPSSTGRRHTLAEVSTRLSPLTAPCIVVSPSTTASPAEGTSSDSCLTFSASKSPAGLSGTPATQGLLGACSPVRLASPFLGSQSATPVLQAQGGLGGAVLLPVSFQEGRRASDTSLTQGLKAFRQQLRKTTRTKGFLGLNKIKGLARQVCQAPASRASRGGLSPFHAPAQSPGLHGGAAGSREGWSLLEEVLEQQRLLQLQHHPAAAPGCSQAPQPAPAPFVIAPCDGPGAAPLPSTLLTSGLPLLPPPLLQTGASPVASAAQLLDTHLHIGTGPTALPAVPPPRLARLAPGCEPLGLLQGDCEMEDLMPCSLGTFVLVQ
Chain of Serine/threonine-protein kinase PLK2 (Homo sapiens) (Q9NYY3 whole entry, looked up, the tested form may be a part): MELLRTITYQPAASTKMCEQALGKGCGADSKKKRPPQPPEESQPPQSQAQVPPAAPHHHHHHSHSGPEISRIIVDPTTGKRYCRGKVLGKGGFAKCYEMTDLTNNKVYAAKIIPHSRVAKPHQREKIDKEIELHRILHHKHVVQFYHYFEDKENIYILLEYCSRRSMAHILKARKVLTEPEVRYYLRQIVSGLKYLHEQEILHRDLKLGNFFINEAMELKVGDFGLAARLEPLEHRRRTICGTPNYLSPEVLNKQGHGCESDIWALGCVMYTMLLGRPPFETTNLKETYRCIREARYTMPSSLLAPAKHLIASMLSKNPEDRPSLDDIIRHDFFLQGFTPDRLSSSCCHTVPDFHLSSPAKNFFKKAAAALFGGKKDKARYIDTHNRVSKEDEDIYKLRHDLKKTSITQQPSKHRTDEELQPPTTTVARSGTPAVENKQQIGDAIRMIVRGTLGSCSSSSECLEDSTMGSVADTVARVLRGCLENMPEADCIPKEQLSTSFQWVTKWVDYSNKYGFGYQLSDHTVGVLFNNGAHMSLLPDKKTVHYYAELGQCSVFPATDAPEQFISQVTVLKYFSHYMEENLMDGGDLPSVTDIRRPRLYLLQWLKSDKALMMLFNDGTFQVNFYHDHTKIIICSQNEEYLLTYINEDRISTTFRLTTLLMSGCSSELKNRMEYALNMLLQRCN
Chain of SRSF protein kinase 2 (Homo sapiens) (P78362 whole entry, looked up): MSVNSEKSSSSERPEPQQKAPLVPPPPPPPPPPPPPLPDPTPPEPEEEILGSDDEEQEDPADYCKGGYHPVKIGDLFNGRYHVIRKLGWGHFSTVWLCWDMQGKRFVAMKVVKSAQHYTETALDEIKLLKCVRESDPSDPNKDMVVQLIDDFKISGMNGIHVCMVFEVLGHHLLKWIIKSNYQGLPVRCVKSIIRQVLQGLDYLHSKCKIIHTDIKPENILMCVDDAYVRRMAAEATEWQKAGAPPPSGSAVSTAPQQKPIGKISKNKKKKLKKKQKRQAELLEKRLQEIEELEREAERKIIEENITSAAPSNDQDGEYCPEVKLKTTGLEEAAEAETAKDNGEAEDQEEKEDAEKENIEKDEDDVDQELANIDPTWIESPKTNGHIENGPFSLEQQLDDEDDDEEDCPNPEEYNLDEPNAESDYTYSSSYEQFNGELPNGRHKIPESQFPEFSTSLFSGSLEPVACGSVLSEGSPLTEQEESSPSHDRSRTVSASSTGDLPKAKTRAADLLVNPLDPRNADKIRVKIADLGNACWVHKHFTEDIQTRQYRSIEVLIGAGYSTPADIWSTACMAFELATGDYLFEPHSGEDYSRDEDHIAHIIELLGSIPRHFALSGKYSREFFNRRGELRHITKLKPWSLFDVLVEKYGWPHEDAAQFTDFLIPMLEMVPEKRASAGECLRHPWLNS
Chain of Inhibitor of nuclear factor kappa-B kinase subunit alpha (Homo sapiens) (O15111 whole entry): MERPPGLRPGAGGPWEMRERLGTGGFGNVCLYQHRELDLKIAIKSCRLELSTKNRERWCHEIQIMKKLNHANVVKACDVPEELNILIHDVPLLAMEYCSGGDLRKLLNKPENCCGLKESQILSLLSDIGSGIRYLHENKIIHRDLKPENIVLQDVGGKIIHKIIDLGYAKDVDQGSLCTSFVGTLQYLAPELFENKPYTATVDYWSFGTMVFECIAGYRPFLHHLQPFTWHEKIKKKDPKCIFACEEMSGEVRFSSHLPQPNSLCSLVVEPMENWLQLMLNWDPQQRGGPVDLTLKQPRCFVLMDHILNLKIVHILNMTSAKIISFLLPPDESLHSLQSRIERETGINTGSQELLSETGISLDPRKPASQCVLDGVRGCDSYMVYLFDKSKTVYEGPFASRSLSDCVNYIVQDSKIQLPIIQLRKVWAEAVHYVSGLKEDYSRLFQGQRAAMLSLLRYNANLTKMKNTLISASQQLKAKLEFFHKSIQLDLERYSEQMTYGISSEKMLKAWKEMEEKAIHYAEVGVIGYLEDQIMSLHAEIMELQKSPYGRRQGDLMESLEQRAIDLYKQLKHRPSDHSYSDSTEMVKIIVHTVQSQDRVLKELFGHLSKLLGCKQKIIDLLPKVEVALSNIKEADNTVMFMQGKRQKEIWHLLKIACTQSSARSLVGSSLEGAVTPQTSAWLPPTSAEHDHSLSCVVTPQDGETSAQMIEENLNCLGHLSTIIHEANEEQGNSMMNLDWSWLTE
Chain of Testis-specific serine/threonine-protein kinase 2 (Homo sapiens) (Q96PF2 whole entry): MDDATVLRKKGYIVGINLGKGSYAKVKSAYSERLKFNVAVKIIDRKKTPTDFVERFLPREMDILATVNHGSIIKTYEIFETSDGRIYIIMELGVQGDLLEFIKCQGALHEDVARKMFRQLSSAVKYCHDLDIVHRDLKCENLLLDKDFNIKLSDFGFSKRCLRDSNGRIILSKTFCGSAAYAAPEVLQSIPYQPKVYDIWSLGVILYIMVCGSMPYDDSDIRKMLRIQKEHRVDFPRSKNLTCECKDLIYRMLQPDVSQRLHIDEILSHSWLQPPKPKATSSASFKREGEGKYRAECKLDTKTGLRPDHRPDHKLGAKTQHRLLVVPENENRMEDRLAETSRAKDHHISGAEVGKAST

| Structure (SMILES) | Activity [1] | Activity [2] | Activity [3] | Activity [4] | Activity [5] | Activity [6] | Activity [7] | Activity [8] | Activity [9] | Activity [10] | Activity [11] | Activity [12] | Activity [13] | Activity [14] | Activity [15] | Activity [16] | Activity [17] | Activity [18] | Activity [19] | Activity [20] | further results |
| --- | --- | --- | --- | --- | --- | --- | --- | --- | --- | --- | --- | --- | --- | --- | --- | --- | --- | --- | --- | --- | --- |
| C=CCOC(=O)c1cc(-c2ccc(/C=C3/NC(=S)NC3=O)o2)ccc1Cl | 98% | 94% | 96% | 91% | 102% | 95% | 97% | 107% | 99% | 104% | 116% | 105% | 94% | 98% | 89% | 106% | 84% | 104% | 106% | 102% | Activity [21]: 102% |
| N=C1NC(=O)/C(=C\c2ccc(-c3cccc([N+](=O)[O-])c3)o2)S1 | 103% | 92% | 92% | 92% | 111% | 95% | 99% | 105% | 82% | 102% | 106% | 91% | 98% | 94% | 37% | 93% | 77% | 102% | 96% | 108% | Activity [21]: 96% |
